Each molecule was assayed against T1, human HSL (Homo sapiens, UniProt Q05469) (assay: Human Hormone-Sensitive Lipase (HSL) Enzyme Inhibition Assay). Conditions: colorimetric assay, 2,3-dimercapto-1-propanol tributyrate (DMPT) substrate, 37° C. for 20 minutes, absorbance at 405 nm; read-out: HSL hum IC50.
T1 construct: overlapping PCR to generate a full length human HSL ORF with a 3′-His6 tag; His6 (C); made in house; host or cells: High 5 insect cells (baculovirus, pFast-BAC)
T1 sequence (Q05469 1-1076): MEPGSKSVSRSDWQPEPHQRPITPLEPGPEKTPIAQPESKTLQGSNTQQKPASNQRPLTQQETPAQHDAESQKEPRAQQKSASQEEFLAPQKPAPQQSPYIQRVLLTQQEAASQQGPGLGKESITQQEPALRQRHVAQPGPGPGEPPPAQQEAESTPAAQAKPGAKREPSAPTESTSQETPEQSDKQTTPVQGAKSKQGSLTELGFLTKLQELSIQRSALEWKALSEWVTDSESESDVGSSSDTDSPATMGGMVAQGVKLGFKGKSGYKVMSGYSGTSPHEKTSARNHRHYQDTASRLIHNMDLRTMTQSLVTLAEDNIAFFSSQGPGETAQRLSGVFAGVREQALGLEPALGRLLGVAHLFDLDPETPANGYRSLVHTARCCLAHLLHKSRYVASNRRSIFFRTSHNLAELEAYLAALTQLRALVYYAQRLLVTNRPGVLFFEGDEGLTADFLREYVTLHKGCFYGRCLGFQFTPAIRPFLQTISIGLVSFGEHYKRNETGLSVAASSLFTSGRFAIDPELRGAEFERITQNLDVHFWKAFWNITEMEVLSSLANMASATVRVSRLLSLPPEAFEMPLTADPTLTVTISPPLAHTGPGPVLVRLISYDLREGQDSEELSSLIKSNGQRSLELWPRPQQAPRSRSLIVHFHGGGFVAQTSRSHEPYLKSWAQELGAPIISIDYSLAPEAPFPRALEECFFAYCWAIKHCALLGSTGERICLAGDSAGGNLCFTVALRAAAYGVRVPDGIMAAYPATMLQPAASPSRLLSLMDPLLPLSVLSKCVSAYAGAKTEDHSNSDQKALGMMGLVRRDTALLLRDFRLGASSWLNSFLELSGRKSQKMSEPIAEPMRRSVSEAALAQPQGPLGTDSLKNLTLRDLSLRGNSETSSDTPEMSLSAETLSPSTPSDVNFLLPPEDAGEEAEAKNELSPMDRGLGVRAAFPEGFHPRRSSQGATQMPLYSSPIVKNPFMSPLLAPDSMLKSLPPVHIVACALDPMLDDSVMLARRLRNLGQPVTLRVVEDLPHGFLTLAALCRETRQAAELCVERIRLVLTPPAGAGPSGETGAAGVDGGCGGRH
Format: biochemical
Method in brief: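 Colorimetric thioester hydrolysis: compounds in DMSO series mixed with DMPT (1.5 mM) in MOPS pH 7.2 with BSA, then baculovirus-expressed His6-tagged full-length human HSL added, 37° C, 20 min. DTNB plus detergents added, 15 min room temperature, absorbance at 405 nm.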

Structure (SMILES)	IC50 [nM]
CCN(CC)C(=O)N1CCC2(CC1)CCN(c1ccc(OC(F)(F)F)cc1)C2=O [Example 266, 1-Oxo-2-(4-trifluoromethoxy-phenyl)-2,8-diaza-spiro[4.5]decane-8-carboxylic acid diethylamide]	330
O=C1N(c2ccc(C3CC3)cc2)CCC12CCN(S(=O)(=O)c1ccccc1OC(F)(F)F)CC2 [Example 82, 2-(4-Cyclopropyl-phenyl)-8-(2-trifluoromethoxy-benzenesulfonyl)-2,8-diaza-spiro[4.5]decan-1-one]	110
COCC(C)(C)c1ccc(N2CCC3(CCN(S(=O)(=O)c4ccccc4OC(F)(F)F)CC3)C2=O)cc1 [Example 110, 2-[4-(2-Methoxy-1,1-dimethyl-ethyl)-phenyl]-8-(2-trifluoromethoxy-benzenesulfonyl)-2,8-diaza-spiro[4.5]decan-1-one]	30
CC(C)(C)c1ccc(CCN2CCC3(CCN(S(=O)(=O)c4ccccc4Cl)CC3)C2=O)cc1 [Example 238, 2-[2-(4-tert-Butyl-phenyl)-ethyl]-8-(2-chloro-benzenesulfonyl)-2,8-diaza-spiro[4.5]decan-1-one]	100
O=C1N(c2ccc(C(F)(F)F)c(Cl)c2)CCC12CCN(S(=O)(=O)c1ccccc1Cl)CC2 [Example 227, 8-(2-Chloro-benzenesulfonyl)-2-(3-chloro-4-trifluoromethyl-phenyl)-2,8-diaza-spiro[4.5]decan-1-one]	80
CCCCCN(C)C(=O)N1CCC2(CC1)CCN(c1ccc(OC(F)(F)F)cc1)C2=O [Example 273, 1-Oxo-2-(4-trifluoromethoxy-phenyl)-2,8-diaza-spiro[4.5]decane-8-carboxylic acid methyl-pentyl-amide]	80
CS(=O)(=O)c1ccc(N2CCC3(CCN(S(=O)(=O)c4ccccc4Cl)CC3)C2=O)cc1 [Example 140, 8-(2-Chloro-benzenesulfonyl)-2-(4-methanesulfonyl-phenyl)-2,8-diaza-spiro[4.5]decan-1-one]	40
O=C1N(CCc2cccc(Cl)c2)CCC12CCN(S(=O)(=O)c1ccccc1Cl)CC2 [Example 247, 8-(2-Chloro-benzenesulfonyl)-2-[2-(3-chloro-phenyl)-ethyl]-2,8-diaza-spiro[4.5]decan-1-one]	80

The remaining lines, values ahead:

IC50 [nM]	Structure (SMILES)
150	COC(=O)c1cccc(C)c1S(=O)(=O)N1CCC2(CCN(c3ccc(OC(F)(F)F)cc3)C2=O)CC1 [Example 234, 3-Methyl-2-[1-oxo-2-(4-trifluoromethoxy-phenyl)-2,8-diaza-spiro[4.5]decane-8-sulfonyl]-benzoic acid methyl ester]
50	COC/C=C/c1ccc(N2CCC3(CCN(S(=O)(=O)c4ccccc4OC(F)(F)F)CC3)C2=O)cc1 [Example 144, 2-[4-((E)-3-Methoxy-propenyl)-phenyl]-8-(2-trifluoromethoxy-benzenesulfonyl)-2,8-diaza-spiro[4.5]decan-1-one]
260	O=C(N1CCC2(CC1)CCN(c1ccc(OC(F)(F)F)cc1)C2=O)N1Cc2ccccc2C1 [Example 277, 8-(1,3-Dihydro-isoindole-2-carbonyl)-2-(4-trifluoromethoxy-phenyl)-2,8-diaza-spiro[4.5]decan-1-one]
380	CC(C)N(C)C(=O)c1ccc(N2CCC3(CCN(S(=O)(=O)c4ccccc4Cl)CC3)C2=O)cc1 [Example 161, 4-[8-(2-Chloro-benzenesulfonyl)-1-oxo-2,8-diaza-spiro[4.5]dec-2-yl]-N-isopropyl-N-methyl-benzamide]
110	CCc1ccc(N2CCC3(CCN(S(=O)(=O)c4ccccc4Cl)CC3)C2=O)cn1 [Example 250, 8-(2-Chloro-benzenesulfonyl)-2-(6-ethyl-pyridin-3-yl)-2,8-diaza-spiro[4.5]decan-1-one]
70	CCC(C)c1ccc(N2CCC3(CCN(S(=O)(=O)CC(C)C)CC3)C2=O)cc1 (centres unmarked) [Example 61, 2-(4-sec-Butyl-phenyl)-8-(2-methyl-propane-1-sulfonyl)-2,8-diaza-spiro[4.5]decan-1-one]

— patent US8329904B2, “Azacyclic derivatives” (Hoffmann-La Roche Inc., priority 2009, dated 2012)
